Consider two compounds from PMC6941404, “Pigmentosins from Gibellula sp. as antibiofilm agents and a new glycosylated asperfuran from Cordyceps javanica” (Beilstein Journal of Organic Chemistry, 2019).

What all share (assay type): cell-based
One test has as its system Bacillus subtilis DSM10. The test is described as follows: Antimicrobial activity, broth microdilution MIC. The conditions noted are these: for MIC: read-out: Antimicrobial activity (MIC) BS. The method, then: To evaluate the biological effects of compounds 1–6, various assays were carried out. The antimicrobial activity of the isolated compounds against Bacillus subtilis DSM10, Escherichia coli DSM498, Candida tenuis MUCL29892, and Mucor plumbeus MUCL49355 was determined as described by Kuephadungphan and co-workers. The nematicidal activity against Caenorhabditis elegans was investigated using a microtiter plate assay according to Helaly and co-workers, while the cytotoxicity was tested against murine fibroblast (L929) and human HeLa (KB3.1) cell lines according to Chepkirui and co-workers.
Biological activity screening of compounds 1–6
Antimicrobial activity assay
The minimum inhibitory concentration (MIC) of compounds 1–6 was determined using the broth microdilution method according to Kuephadungphan et al.4 against B. subtilis DSM10, E. coli DSM498, C. tenuis MUCL29892 and M. plumbeus MUCL49355. Stock suspension of each bacterium and yeast (100 μL) was transferred to 100 mL of EBS medium and YM medium, respectively.
Suspensions of B. subtilis and C. tenuis were incubated on a rotary shaker at 30 °C for 18–24 h while E. coli was grown at 37 °C for 24 h. After incubation, the suspension was adjusted to a concentration of 6.7 × 10^5 cells/mL using a hemacytometer. The spore suspension of M. plumbeus was prepared at a concentration of 6.7 × 10^5 conidia/mL using YM medium. The determination of MIC was performed in a 96-well microtiter plate. The compounds dissolved in methanol at a concentration of 4.5 mg/mL (20 μL) were transferred to the first row of the plate. Standard antibiotics including ciprofloxacin (bacteria) and nystatin (yeast and fungus), and methanol were used as positive and negative controls, respectively. Inoculum suspension (280 μL) was added to the first row containing compounds and 150 μL were added to the rest. The solutions were then serially 2-fold diluted to 8 concentrations ranging from 2.34–300 μg/mL. Plates were incubated at 30 °C on a microplate-vibrating shaker for 24 h for bacteria and 48 h for yeast and filamentous fungus. […]
The assay was kindly conducted by Wera Collisi, Department of Microbial Drugs, Helmholtz Centre of Infection Research, Germany. The tested cell lines were cultured in EBM -2 (Lonza) sup plemented with 10% fetal bovine serum (Gibco) under 10% CO2 at 37 °C. A 60 µL of serial dilutions from an initial stock (1 mg/mL) of the test compounds in MeOH was added to 120 µL aliquots of a cell suspension (50,000 cells/mL) in 96-well microplates.
After incubation for five days, 20 µL of MTT in phosphate buffered saline (PBS) were added to give a final concentration of 0.5 mg/mL. The plates were further incubated for two hours. The precipitate

The test system of test [1] is Pseudomonas aeruginosa PA14. Kind of test: Anti-biofilm activity, microtiter dish biofilm formation assay. The conditions noted are these: lowest concentration preventing biofilm formation by at least 50%, 24 h, NA = No activity. As for the experimental part: (§1) The isolated compounds were also tested for their ability to interfere in the biofilm formation of Staphylococcus aureus DSM1104 and Pseudomonas aeruginosa PA14 [51]. The biofilm inhibition assay was performed in 96-well microtiter plates using the microtiter dish biofilm formation assay described by O’Toole, with minor modifications, as outlined in our recent publications. The antibiofilm activity is expressed as MIC values, which is defined as the lowest concentration of substance that prevents biofilm formation of a target microorganism by at least 50%. […]
(§2) Anti-biofilm activity assay
(§3) The determination of the ability of isolated compounds to prevent biofilm formation of S. aureus DSM1104 (ATCC25923) and P. aeruginosa PA148 was performed using the microtiter dish biofilm formation assay described by O’Toole9 with minor modification provided in our recent publications 1, 6, 10–14. The biofilm forming strains were enriched overnight in CASO medium with and without 4% glucose for S. aureus and P. aeruginosa , respectively. After incubation at 37 °C under shaking condition, the overnight cultures were adjusted to equal the turbidity of 0.5 McFarland standard using the assay medium. The assay was carried out in 96 -well tissue cultured -treated microplates (TPP®, Germany) for S. aureus and non-treated plates (Falcon®MicroTestTM, USA) for P. aeruginosa , in which 10 μ L of each compound (0.5 mg/m L) in six replicates were mixed together with 140 μ L of bacterial suspension. Methanol and CASO medium with and without 4% glucose were used as negative controls and tetracycline (100 μg/m L) as positive control. Plates were covered with a sterile adhesive porous paper (Kisker Biotech GmbH, Steinfurt, Germany) and incubated at 37 °C for 24 h.
(§4) After incubation, ba cterial biofilms were stained with 0.1% crystal violet solution (Sigma -Aldrich) following the protocol of O’Toole .9 Then, the biofilm was subsequently quantified using a microplate reader at 550 nm. 12 In the current study, the antibiofilm activity was expr essed as MIC value which was defined as the lowest concentration of substance that prevents the biofilm formation of a target microorganism by at least 50%. […]

The test system of test [2] is Staphylococcus aureus DSM1104. Described as above. The conditions noted are these: S. aureus DSM1104 (ATCC25923), lowest concentration preventing biofilm formation by at least 50%, 24 h, NA = No activity. The method, then:
as §1, §2, §3, §4

[3] abbreviates: Bacillus subtilis DSM10, 24 h, range 2.34–300 μg/mL, NA = No activity.

Each structure is given as a SMILES string. In brackets after ≈: the same amount, converted by molar mass. Read-outs that look alike come from different tables or passages of the source.

For the compound `COc1cc(O)c2c(O)c3c(cc2c1-c1c(OC)cc(O)c2c(O)c4c(cc12)CC(C)OC4=O)CC(C)OC3=O` (centres unmarked) [Pigmentosin A (1), pigmentosin A], in the test with Bacillus subtilis DSM10 (setting [3]), the “Antimicrobial activity (MIC) BS” value was 12.5 µg/mL. For the same compound, the MIC with Bacillus subtilis DSM10 (Bacillus subtilis, DSM10, 24 h) stood at 12.5 µg/mL (≈ 22.9 µM). Also, in test [1], the “Anti-biofilm activity (MIC) PA” value was “nor antibiofilm activity”. The results for the “Anti-biofilm activity (MIC) SA” value in test [2] and in test [2] (listed as 1) were 1.9 µg/mL and “active”, respectively.

For the compound `COc1cc(O)c2c(O)c3c(cc2c1-c1c(OC)cc(O)c2c(O)c4c(cc12)CC(CC(C)O)OC4=O)CC(C)OC3=O` (centres unmarked) [Pigmentosin B (2), pigmentosin B], the “Antimicrobial activity (MIC) BS” value with Bacillus subtilis DSM10 (setting [3]) is 100 µg/mL. For the same compound, in the test on Bacillus subtilis DSM10 (setting [3]), the MIC was found to be 100 µg/mL (≈ 169 µM). The “Anti-biofilm activity (MIC) PA” value in test [1] was “nor antibiofilm activity”. Moreover, the “Anti-biofilm activity (MIC) SA” value in test [2] was 15.6 µg/mL; in test [2] (listed as 2) it was “active”; in test [2] (listed as pigmentosin B (2)), 15.6 µg/mL.
